Laboratory results published in patent US20100210682A1, “Repeated Dosing of TRPV1 Antagonists” (ABBOTT LABORATORIES, priority 2009, published 2010).
Values after ≈ are worked out from the molar mass of the structure shown. Marks after values point to notes of the source that are not given here.

Experiments:
[1] = system: inflammatory thermal hyperalgesia induced by intraplantar administration of CFA; experiment: Inflammatory pain model in rats (CFA, thermal hyperalgesia); type: in vivo; conditions: po; rat, p.o., acute dosing; read-out: ED50, reversal of inflammatory thermal hyperalgesia induced by CFA
Experimental: The response to acute thermal stimulation was determined using a commercially available paw thermal stimulator (UARDG, University of California, San Diego, Calif.). Rats were placed individually in Plexiglass cubicles mounted on a glass surface maintained at 30° C., and allowed a 30 min habituation period. A thermal stimulus, in the form of radiant heat emitted from a focused projection bulb, was then applied to the plantar surface of each hind paw. In each test session, each rat was tested in three sequential trials at approximately 5 min intervals. Paw withdrawal latencies (PWLs) were calculated as the mean of the two shortest latencies. An assay cut-off was set at 20.5 s. Unilateral inflammation was induced by injecting 150 μL of a 50% solution of complete Freund's adjuvant (CFA) (Sigma, St. Louis, Mo.) in physiological saline into the plantar surface of the right hind paw of the rat. The hyperalgesia to thermal stimulation was determined 2 days following CFA injection using the same apparatus as described above for the noxious acute thermal assay. Compound A was dissolved in 100% polyethylene glycol (PEG 400) for oral administration in a 2 mL/kg injection volume. Compounds B, C, and D were dissolved in 10% ethanol, 20% Tween 80 and 70% polyethylene glycol-400 for oral administration in a 2 mL/kg injection volume. […]

[2] = system: post-operative thermal hyperalgesia; experiment: Post-operative pain model in rats (skin incision), thermal hyperalgesia; type: in vivo; conditions: po; rat, p.o., acute dosing, 24 h post-injury; read-out: ED50, reversal of thermal hyperalgesia
Experimental: The response to acute thermal stimulation was determined using a commercially available paw thermal stimulator (UARDG, University of California, San Diego, Calif.). Rats were placed individually in Plexiglass cubicles mounted on a glass surface maintained at 30° C., and allowed a 30 min habituation period. A thermal stimulus, in the form of radiant heat emitted from a focused projection bulb, was then applied to the plantar surface of each hind paw. In each test session, each rat was tested in three sequential trials at approximately 5 min intervals. Paw withdrawal latencies (PWLs) were calculated as the mean of the two shortest latencies. An assay cut-off was set at 20.5 s.
As described by Brennan et al. [Brennan T J, Vandermeulen E P, Gebhart G F. Characterization of a rat model of incisional pain. Pain 1996; 64:493-501], a 1 cm longitudinal incision was made through the skin and fascia of the plantar aspect of the foot, starting 0.5 cm from the proximal edge of the heel and extending toward the toes. The plantaris muscle was elevated and incised longitudinally with origin and insertion of the muscle remaining intact. The skin was then closed with two 5-0 nylon mattress sutures. After surgery, the animals were allowed to recover and housed individually with soft bedding. Animals were tested for mechanical allodynia using von Frey hairs and for thermal hyperalgesia as described above. […]

[3] = system: capsaicin-induced flinching behaviors; experiment: Capsaicin-induced acute pain (flinching) in rats; type: in vivo; conditions: rat, acute dosing, 2.5 μg capsaicin into hind paw
Experimental: Rats were placed in individual observation cages. Following an acclimation period of 30 min, the test compound was administered. Two hours later, 2.5 μg of capsaicin in a 10 μL solution of 10% ethanol/90% hydroxypropyl-b-cyclodextrin was injected subcutaneously into the dorsal aspect of the right hind paw. The observation cage was then suspended above mirrors in order to facilitate observation of the rat. […] The number of flinching behaviors of the injured paw was recorded during the 5 minutes observation period. Compound A was dissolved in 100% polyethylene glycol (PEG 400) for oral administration in a 2 mL/kg injection volume. Compounds B, C, and D were dissolved in 10% ethanol, 20% Tween 80 and 70% polyethylene glycol-400 for oral administration in a 2 mL/kg injection volume. All compounds were dosed orally (p.o.) 60 minutes before behavioral testing.

[4] = system: MIA-induced osteoarthritic rats; experiment: Osteoarthritic pain model in rats (MIA), weight bearing difference; type: in vivo; conditions: po, 96 h; rat, p.o., acute dosing, 4 days following MIA injection; read-out: ED50, reversal of difference in weight bearing
Experimental: Unilateral knee joint osteoarthritis was induced in the rats by a single intraarticular (i.a.) injection of sodium monoiodoacetate (MIA) (Sigma, St. Louis, Mo.) (3 mg in 0.05 mL sterile isotonic saline) into the joint cavity using a 26 G needle under light (2-4%) halothane (Halocarbon Laboratories, River Edge, N.J.) anesthesia [Bove S E, Calcaterra S L, Brooker R M, Huber C M, Guzman R E, Juneau P L, et al. Weight bearing as a measure of disease progression and efficacy of anti-inflammatory compounds in a model of monosodium iodoacetate-induced osteoarthritis. Osteoarthritis Cartilage 2003; 11:821-30]. […]
MIA-induced nociception can be assessed by measuring differences in weight bearing (WBD) or decrease in grip force (GF) several days to weeks following MIA injection [Bove S E, Calcaterra S L, Brooker R M, Huber C M, Guzman R E, Juneau P L, et al. Weight bearing as a measure of disease progression and efficacy of anti-inflammatory compounds in a model of monosodium iodoacetate-induced osteoarthritis. […]
Differences in weight bearing on the injured vs uninjured hind limb were assessed by placing the animals in an Incapacitance Tester (Linton, Stoelting, Wood Dale, Ill.). […] The animals were allowed to acclimate for approximately 30 s before weight-bearing readings (measured in grams) were recorded. […]

[5] = Plasma levels in osteoarthritic rats after acute and repeated dosing; type: in vivo, rat; conditions: derived from modeling of PK/PD data from acute and chronic dosing studies
Experimental: In the osteoarthritic pain model, animals were dosed twice-daily for 12 days using a dose that was non-efficacious following a single administration (e.g. 3 μmol/kg p.o. for Compound A). The animals were tested 1 hour after acute dosing (p.o.) and on day 12, 1 hour after oral dosing with either vehicle or the test compound.

## CC(C)(C)c1ccc2c(c1)CC[C@H]2NC(=O)Nc1cccc2[nH]ncc12 [Compound A, N-[(1R)-5-tert-butyl-2,3-dihydro-1H-inden-1-yl]-N′-1H-indazol-4-ylurea]
[1]
  ED50: 10 µmol/kg
[2]
  ED50: 40 µmol/kg
[3]
  capsaicin-induced flinching behaviors: dose-dependently prevented
[4]
  ED50: 30 µmol/kg
[5]; 3 μmol/kg BID 12 days
  Plasma Levels, Chronic: 17** at 3 μmol/kg ng/mL
[5]; Rattus norvegicus, osteoarthritic rats
  EC50: 0.085 µg/mL (≈ 0.244 µM)
